From US11542240B2, “STK19 inhibitors for treatment of cancer” (TRUSTEES OF BOSTON UNIVERSITY, priority 2018, dated 2023)
Where two headings read alike, the source gives them in different places.

How the values were obtained:
Test in all cases: biochemical
Assay type in all cases: binding
[1] = molecular target: panel of 468 diverse kinases (Homo sapiens, UniProt P22607); details: FGFR3; 1000 nM; read-out: Percent Control
[2] = molecular target: panel of 468 diverse kinases (Homo sapiens, UniProt Q13177); details: PAK2; 1000 nM; read-out: Percent Control
[3] = molecular target: panel of 468 diverse kinases (Homo sapiens, UniProt Q9BYT3); details: STK33; 1000 nM; read-out: Percent Control
[4] = molecular target: panel of 468 diverse kinases (Homo sapiens, UniProt P10721, D816H); details: KIT(D816H); 1000 nM; read-out: Percent Control
[5] = molecular target: panel of 468 diverse kinases (Homo sapiens, UniProt Q04912); details: MST1R; 1000 nM; read-out: Percent Control
[6] = molecular target: panel of 468 diverse kinases (Homo sapiens, UniProt P00519); details: 1000 nM, read-out: Percent Control
[7] = molecular target: panel of 468 diverse kinases (Homo sapiens, UniProt P27361); details: ERK1; 1000 nM; read-out: Percent Control
[8] = molecular target: panel of 468 diverse kinases (Homo sapiens, UniProt Q13153); details: PAK1; 1000 nM; read-out: Percent Control
[9] = molecular target: panel of 468 diverse kinases (Homo sapiens, UniProt Q6ZN16); details: MAP3K15; 1000 nM; read-out: Percent Control
[10] = molecular target: panel of 468 diverse kinases (Homo sapiens, UniProt Q08881); details: ITK; 1000 nM; read-out: Percent Control
[11] = molecular target: panel of 468 diverse kinases (Homo sapiens, UniProt Q05655); details: PRKCD; 1000 nM; read-out: Percent Control
[12] = molecular target: panel of 468 diverse kinases (Homo sapiens, UniProt Q9HBH9); details: MKNK2; 1000 nM; read-out: Percent Control
[13] = molecular target: panel of 468 diverse kinases (Homo sapiens, UniProt Q9H2K8); details: TAOK3; 1000 nM; read-out: Percent Control
[14] = molecular target: panel of 468 diverse kinases (Homo sapiens, UniProt P16234); details: PDGFRA; 1000 nM; read-out: Percent Control
[15] = molecular target: panel of 468 diverse kinases (Homo sapiens, UniProt P36507); details: MEK2; 1000 nM; read-out: Percent Control
[16] = molecular target: panel of 468 diverse kinases (Homo sapiens, UniProt P49759); details: CLK1; 1000 nM; read-out: Percent Control
[17] = molecular target: panel of 468 diverse kinases (Homo sapiens, UniProt P11802); details: 1000 nM, read-out: Percent Control
[18] = molecular target: panel of 468 diverse kinases (Homo sapiens, UniProt Q16539); details: p38-alpha; 1000 nM; read-out: Percent Control
[19] = molecular target: panel of 468 diverse kinases (Homo sapiens, UniProt Q9HBY8); details: SGK2; 1000 nM; read-out: Percent Control
[20] = molecular target: panel of 468 diverse kinases (Homo sapiens, UniProt P37023); details: ACVRL1; 1000 nM; read-out: Percent Control
[21] = molecular target: panel of 468 diverse kinases (Homo sapiens, UniProt Q9NYL2); details: ZAK; 1000 nM; read-out: Percent Control
[22] = molecular target: panel of 468 diverse kinases (Homo sapiens, UniProt P51956); details: NEK3; 1000 nM; read-out: Percent Control
[23] = molecular target: panel of 468 diverse kinases (Homo sapiens, UniProt Q13523); details: PRP4; 1000 nM; read-out: Percent Control
[24] = molecular target: panel of 468 diverse kinases (Homo sapiens, UniProt Q99640); details: PKMYT1; 1000 nM; read-out: Percent Control
[25] = molecular target: panel of 468 diverse kinases (Homo sapiens, UniProt Q9UPZ9); details: ICK; 1000 nM; read-out: Percent Control
[26] = molecular target: panel of 468 diverse kinases (Homo sapiens, UniProt P43405); details: SYK; 1000 nM; read-out: Percent Control
[27] = molecular target: panel of 468 diverse kinases (Homo sapiens, UniProt Q16584); details: MLK3; 1000 nM; read-out: Percent Control
[28] = molecular target: panel of 468 diverse kinases (Homo sapiens, UniProt Q96D53); details: ADCK4; 1000 nM; read-out: Percent Control
[29] = molecular target: panel of 468 diverse kinases (Homo sapiens, UniProt Q9P289); details: MST4; 1000 nM; read-out: Percent Control
[30] = molecular target: panel of 468 diverse kinases (Homo sapiens, UniProt Q06418); details: TYRO3; 1000 nM; read-out: Percent Control
[31] = molecular target: panel of 468 diverse kinases (Homo sapiens, UniProt P00533, L858R); details: EGFR(L858R); 1000 nM; read-out: Percent Control

Sequence of panel of 468 diverse kinases (Homo sapiens, UniProt P11802) (P11802 2-303 limits assumed): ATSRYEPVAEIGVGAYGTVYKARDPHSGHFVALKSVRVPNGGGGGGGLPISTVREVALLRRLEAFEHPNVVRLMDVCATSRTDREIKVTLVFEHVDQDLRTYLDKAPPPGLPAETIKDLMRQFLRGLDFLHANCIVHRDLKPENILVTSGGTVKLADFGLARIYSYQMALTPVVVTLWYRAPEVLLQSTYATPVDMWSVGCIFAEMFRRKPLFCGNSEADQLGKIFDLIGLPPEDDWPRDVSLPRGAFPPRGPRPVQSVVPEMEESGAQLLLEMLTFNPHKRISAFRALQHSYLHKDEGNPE
Sequence of panel of 468 diverse kinases (Homo sapiens, UniProt P37023) (P37023 22-503 limits assumed): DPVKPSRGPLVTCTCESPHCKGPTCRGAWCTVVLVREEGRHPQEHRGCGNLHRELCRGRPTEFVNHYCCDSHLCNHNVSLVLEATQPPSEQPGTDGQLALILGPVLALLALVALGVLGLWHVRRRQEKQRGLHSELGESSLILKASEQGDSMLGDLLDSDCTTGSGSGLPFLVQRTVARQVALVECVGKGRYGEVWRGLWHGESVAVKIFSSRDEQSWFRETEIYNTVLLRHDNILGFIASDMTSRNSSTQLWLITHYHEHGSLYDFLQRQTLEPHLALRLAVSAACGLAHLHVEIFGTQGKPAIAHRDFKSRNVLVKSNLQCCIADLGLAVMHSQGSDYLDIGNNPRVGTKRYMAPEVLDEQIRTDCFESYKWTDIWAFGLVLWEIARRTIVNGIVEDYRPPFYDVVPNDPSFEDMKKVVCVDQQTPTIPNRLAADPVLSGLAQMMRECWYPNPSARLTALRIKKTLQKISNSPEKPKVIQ
Sequence of panel of 468 diverse kinases (Homo sapiens, UniProt Q13153) (Q13153 2-545 limits assumed): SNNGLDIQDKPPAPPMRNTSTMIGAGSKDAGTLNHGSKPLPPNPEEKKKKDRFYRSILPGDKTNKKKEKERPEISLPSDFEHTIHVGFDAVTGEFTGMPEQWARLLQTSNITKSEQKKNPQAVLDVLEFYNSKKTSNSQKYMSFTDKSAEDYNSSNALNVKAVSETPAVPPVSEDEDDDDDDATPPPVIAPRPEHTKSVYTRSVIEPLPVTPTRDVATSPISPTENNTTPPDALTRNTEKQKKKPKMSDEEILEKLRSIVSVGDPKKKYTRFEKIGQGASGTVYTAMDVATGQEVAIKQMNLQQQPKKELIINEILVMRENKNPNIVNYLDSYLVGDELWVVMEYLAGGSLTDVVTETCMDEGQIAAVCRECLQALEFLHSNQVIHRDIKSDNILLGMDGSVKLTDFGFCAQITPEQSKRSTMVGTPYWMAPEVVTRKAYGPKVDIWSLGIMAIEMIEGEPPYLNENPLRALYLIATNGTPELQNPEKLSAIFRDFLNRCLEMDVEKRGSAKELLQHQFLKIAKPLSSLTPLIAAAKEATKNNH
Sequence of panel of 468 diverse kinases (Homo sapiens, UniProt Q9NYL2) (Q9NYL2 2-800 limits assumed): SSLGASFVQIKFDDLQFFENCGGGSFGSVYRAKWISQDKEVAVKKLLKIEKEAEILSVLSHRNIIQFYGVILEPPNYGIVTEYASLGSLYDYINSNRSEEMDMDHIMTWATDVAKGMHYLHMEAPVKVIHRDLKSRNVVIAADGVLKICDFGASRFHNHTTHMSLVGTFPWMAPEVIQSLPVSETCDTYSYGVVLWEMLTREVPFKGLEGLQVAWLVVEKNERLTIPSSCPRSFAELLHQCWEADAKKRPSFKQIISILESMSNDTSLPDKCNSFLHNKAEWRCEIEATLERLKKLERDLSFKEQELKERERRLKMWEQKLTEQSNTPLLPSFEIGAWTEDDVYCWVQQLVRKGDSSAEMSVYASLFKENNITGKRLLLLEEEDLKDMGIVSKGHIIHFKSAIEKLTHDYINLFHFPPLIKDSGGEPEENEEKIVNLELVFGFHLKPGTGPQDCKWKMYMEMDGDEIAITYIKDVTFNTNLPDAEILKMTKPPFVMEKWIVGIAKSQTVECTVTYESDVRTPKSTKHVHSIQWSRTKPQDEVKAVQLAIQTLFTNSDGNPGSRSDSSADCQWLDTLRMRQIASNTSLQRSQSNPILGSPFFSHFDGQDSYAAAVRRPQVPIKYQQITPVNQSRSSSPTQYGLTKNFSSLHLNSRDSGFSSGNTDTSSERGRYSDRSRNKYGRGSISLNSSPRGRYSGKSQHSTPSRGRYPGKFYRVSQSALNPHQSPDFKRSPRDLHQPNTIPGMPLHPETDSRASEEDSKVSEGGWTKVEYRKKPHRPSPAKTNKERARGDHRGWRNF
Sequence of panel of 468 diverse kinases (Homo sapiens, UniProt Q06418) (Q06418 41-890 limits assumed): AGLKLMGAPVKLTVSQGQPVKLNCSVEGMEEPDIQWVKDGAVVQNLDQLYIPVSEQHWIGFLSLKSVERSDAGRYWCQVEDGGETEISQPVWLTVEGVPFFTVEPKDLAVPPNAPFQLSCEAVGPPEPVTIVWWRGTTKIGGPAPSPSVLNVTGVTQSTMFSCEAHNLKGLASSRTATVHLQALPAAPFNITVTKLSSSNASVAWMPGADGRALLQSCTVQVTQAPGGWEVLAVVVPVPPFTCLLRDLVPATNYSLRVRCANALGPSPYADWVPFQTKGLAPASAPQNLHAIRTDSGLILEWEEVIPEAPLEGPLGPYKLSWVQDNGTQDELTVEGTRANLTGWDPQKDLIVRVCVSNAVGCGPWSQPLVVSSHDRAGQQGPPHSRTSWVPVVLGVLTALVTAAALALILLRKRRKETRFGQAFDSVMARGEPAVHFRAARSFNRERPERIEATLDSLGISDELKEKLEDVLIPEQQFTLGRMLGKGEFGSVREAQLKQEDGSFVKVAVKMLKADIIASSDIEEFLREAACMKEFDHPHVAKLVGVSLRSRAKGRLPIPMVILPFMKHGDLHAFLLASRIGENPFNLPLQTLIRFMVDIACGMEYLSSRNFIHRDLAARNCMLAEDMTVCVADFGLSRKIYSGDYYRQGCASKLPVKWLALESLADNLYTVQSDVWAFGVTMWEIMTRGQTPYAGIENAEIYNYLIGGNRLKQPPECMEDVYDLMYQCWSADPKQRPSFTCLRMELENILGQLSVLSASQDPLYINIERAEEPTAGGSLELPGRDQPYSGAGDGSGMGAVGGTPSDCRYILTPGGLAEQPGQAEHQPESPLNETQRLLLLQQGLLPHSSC
Sequence of panel of 468 diverse kinases (Homo sapiens, UniProt Q13523) (Q13523 2-1007 limits assumed): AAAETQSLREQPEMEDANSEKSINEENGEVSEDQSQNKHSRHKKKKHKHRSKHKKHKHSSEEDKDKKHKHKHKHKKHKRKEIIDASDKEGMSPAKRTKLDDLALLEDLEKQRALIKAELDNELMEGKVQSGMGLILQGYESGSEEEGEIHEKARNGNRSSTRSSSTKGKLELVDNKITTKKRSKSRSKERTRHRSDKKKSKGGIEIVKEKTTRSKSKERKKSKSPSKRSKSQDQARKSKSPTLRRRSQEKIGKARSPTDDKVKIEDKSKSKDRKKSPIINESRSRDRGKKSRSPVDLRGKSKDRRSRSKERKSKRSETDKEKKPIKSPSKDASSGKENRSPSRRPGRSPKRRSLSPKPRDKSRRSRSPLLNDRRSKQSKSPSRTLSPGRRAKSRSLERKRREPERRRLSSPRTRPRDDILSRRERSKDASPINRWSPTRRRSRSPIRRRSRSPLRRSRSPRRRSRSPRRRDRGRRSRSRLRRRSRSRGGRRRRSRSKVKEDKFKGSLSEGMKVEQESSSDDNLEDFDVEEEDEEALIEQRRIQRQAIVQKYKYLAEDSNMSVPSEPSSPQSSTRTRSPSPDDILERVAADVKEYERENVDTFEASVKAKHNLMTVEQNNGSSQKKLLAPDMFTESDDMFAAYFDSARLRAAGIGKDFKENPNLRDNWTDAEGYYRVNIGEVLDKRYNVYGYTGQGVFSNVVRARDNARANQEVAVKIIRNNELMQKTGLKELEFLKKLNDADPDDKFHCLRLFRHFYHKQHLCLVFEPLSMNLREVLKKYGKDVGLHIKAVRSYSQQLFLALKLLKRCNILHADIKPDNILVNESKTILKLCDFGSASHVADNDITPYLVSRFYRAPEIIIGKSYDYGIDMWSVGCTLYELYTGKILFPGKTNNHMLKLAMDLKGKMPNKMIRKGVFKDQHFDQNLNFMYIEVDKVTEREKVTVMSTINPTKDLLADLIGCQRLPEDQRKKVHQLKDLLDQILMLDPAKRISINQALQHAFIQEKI
Sequence of panel of 468 diverse kinases (Homo sapiens, UniProt P16234) (P16234 24-1089 limits assumed): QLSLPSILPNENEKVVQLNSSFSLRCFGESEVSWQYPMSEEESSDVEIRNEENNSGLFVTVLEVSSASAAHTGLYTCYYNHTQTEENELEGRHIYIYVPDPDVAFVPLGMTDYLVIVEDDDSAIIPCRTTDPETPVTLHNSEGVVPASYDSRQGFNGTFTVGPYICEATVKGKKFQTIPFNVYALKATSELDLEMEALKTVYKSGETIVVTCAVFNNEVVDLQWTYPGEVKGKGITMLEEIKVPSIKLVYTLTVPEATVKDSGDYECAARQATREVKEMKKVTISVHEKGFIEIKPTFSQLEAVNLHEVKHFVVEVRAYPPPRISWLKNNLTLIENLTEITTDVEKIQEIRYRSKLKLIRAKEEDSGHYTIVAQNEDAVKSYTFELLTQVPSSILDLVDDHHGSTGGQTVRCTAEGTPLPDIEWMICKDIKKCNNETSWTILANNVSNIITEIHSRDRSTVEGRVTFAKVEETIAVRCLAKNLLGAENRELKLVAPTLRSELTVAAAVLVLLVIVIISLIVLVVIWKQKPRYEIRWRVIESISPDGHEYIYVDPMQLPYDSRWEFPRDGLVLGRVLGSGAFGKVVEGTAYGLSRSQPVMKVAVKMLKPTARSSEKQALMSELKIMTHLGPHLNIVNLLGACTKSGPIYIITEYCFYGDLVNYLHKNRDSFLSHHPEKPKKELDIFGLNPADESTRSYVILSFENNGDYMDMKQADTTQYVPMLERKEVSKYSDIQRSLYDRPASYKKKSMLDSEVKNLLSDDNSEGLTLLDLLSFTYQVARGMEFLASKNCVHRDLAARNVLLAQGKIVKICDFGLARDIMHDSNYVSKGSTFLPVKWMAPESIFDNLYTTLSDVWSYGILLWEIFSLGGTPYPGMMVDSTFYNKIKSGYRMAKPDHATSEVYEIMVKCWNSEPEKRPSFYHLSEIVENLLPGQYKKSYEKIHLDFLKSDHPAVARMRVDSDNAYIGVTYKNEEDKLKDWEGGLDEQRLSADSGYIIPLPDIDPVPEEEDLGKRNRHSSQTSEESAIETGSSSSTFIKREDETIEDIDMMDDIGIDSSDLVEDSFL

Question: What does the source list for COc1cc2nc(NC3CC3)nc(NC3CCN(C(C)C)CC3)c2cc1OC [Formula IV]?
Answer: remaining activity at 1 µM [1]: 100%; remaining activity at 1 µM [2]: 63%; remaining activity at 1 µM [3]: 92%; remaining activity at 1 µM [4]: 78%; remaining activity at 1 µM [5]: 100%; remaining activity at 1 µM ([6]; ABL1-nonphosphorylated): 91%; remaining activity at 1 µM ([6]; ABL1-phosphorylated): 88%; remaining activity at 1 µM [7]: 98%; remaining activity at 1 µM [8]: 87%; remaining activity at 1 µM [9]: 52%; remaining activity at 1 µM [10]: 96%; remaining activity at 1 µM [11]: 97%; remaining activity at 1 µM [12]: 82%; remaining activity at 1 µM [13]: 54%; remaining activity at 1 µM [14]: 75%; remaining activity at 1 µM [15]: 58%; remaining activity at 1 µM [16]: 96%; remaining activity at 1 µM ([17]; CDK4-cyclinD1): 67%; remaining activity at 1 µM ([17]; CDK4-cyclinD3): 54%; remaining activity at 1 µM ([17]; CDK4): 62%; remaining activity at 1 µM [18]: 100%; remaining activity at 1 µM [19]: 64%; remaining activity at 1 µM [20]: 99%; remaining activity at 1 µM [21]: 100%; remaining activity at 1 µM [22]: 50%; remaining activity at 1 µM [23]: 84%; remaining activity at 1 µM [24]: 93%; remaining activity at 1 µM [25]: 100%; remaining activity at 1 µM [26]: 99%; remaining activity at 1 µM [27]: 93%; remaining activity at 1 µM [28]: 100%; remaining activity at 1 µM [29]: 82%; remaining activity at 1 µM [30]: 100%; remaining activity at 1 µM [31]: 99%
